# Patent US7691387B2, “Cinnamomi and poria composition, method to prepare same and uses thereof” (Jiangsu Kanion Pharmaceutical Co., Ltd, priority 2000, dated 2010)
# Read-outs that look alike come from different tables or passages of the source.
# What was measured:
# [1] = system: uterine smooth muscle induced by oxytocin; assay: Contraction of uterine smooth muscle induced by oxytocin; parameters: species or system Wister rats; contraction frequency: unit not given here; conditions: for contraction frequency: oxytocin 10 mu/ml alone; for contraction activity / contraction activity, controlling % / contraction frequency, controlling % / contraction range / contraction range, controlling %: oxytocin alone
# Protocol: (§1) Twenty-four hours prior to the experiment, intramuscularly inject non-pregnant female rats with a 0.3 mg/kg weight-dose of Dihydrotheelin. The effect artificially puts them in estrus period so as to increase their sensitivity to the CCP. Decapitate the rats, rapidly paunch, take out the uterus and remove the fat. Cut the uterus in 2 cm of length and put it directly in the homothermic flume with 9 ml of the Locke's solution. One end of the uterus must be fixed on the crotchet of the L shaped ventilating pipe and the other end connected to the Muscle Tension Transducer. Keep the temperature of the homothermic flume at 32° C. Continuously emit oxygen into the fume, at least 60-80 bladders per minute and add in 1 ml of the previous solution with a different concentration. After recording a segment of normal contraction curve, observe the different phases before-and-after administering the drug. Respectively, record the contraction frequency and range. Observe from 1 to 10, 10 to 20, and 20 to 30 minutes before-and-after adding the drug solution. Count the uterine activity, and record data between control groups before-and-after administering the drug.
# Observe CCP's effect in smooth muscle contraction of rats' extracorporeal uterine induced by oxytocin. Respectively, record the contraction frequency and range. Observe from 1 to 10, 10 to 20, and 20 to 30 minutes before-and-after adding the drug solution. Count the uterine activity and the inhibitory percentage. Record data as previously done.
# Animals' Grouping: randomly divide Wister female rats' extra-corporeal uteruses into normal saline control group (NSG) and CCP's group. The CCP's group is formed by 4 subgroups with seven uteruses each. The dose of CCP's extract is respectively 5.4, 2.7, 1.3, and 0.6 mg/ml.
# Results: after adding 10 mu/ml oxytocin to the normal uterine smooth muscle there is an increase of the contraction frequency and the uterine activity. The contraction range is also affected reaching its peak for about 10 min to then stabilize on the level. After 40 minutes, the effect gradually drops. After the oxytocin reacts for 10 minutes, add in a different dose of CCP's extract, and compare the possible differences between the CCP's group and the oxytocin's group. A 5.4, 2.7 mg/ml dose of CCP's extract can control the increase of uterine activity induced by oxytocin, and mainly reduce contraction frequency of uterine smooth muscle (See Table 8 and 13).
# [2] = system: rats' Whole Blood Ratio Viscosity; assay: Whole Blood Ratio Viscosity of rats; format: in vivo, Wister rats; conditions: 0.2 g/kg, 5 days
# Protocol: Drug dispensation: put a 12.5 g extract of CCP in a 100 ml solution of normal saline and mix adequately. The drug concentration is 0.125 g/ml (containing 0.5 g/ml of crude drugs). Put a 25 extract of CCP in 100 ml of normal saline. The drug concentration is 0.25 g/ml (containing […] of crude drugs). Put a 50 extract of CCP in a 100 ml of normal saline and mix adequately. The drug concentration is 0.5 g/ml (containing 2 g/ml crude drugs).
# Persantine: put 2 in normal saline and mix adequately. The drug concentration will be 20 mg/ml.
# Experimental processing: Randomly divide male Wister rats weighing 250 to 300 g into five groups with eight rats in each group. Low, medium and high dose groups can take the extract of CCP in a concentration of 10 ml/kg. The concentration of crude drugs is 5 g/kg, 10.0 g/kg and 20 g/kg respectively. The control group takes normal saline of the same volume; positive medicine group takes 0.2 g/kg, which is 10 ml/kg of persantine. The drug must be administered once a day for five consecutive days. After an hour and a half of administering the drug on the fifth day, lightly anaesthetize the […] with ether. Record 40 test tubes, and put 0.1 ml heparin in each. Take blood from the abdominal aorta of the […] and fill each tube with 1 ml of blood. Then use XN-5 Type Blood Viscometer to determine the Whole Blood Ratio Viscosity.
# [3] = cited from earlier work
# [4] = system: rheumatism, stomachache, other pains, eczema, dermatitis; conditions: cited from earlier work
# [5] = system: streptococcus faecalis; conditions: cited from earlier work
# [6] = cited from earlier work; remark: listed apart in the source
# [7] = system: tinea germ between toes; conditions: cited from earlier work
# [8] = system: bacillus subtilis; conditions: cited from earlier work
# [9] = system: coliform; conditions: cited from earlier work
# [10] = system: golden staphylococcus; conditions: cited from earlier work
# [11] = system: blood pressure of anaesthetized dog; conditions: mainline 80-120 mg/kg; cited from earlier work
# [12] = system: mice bone marrow cells; assay: Micronucleus test; format: in vivo, ICR mouse
# Protocol: 30 mice were randomly divided into 5 groups, each group contained 6 animals. Three of the groups were drug-groups and animals in them were given to CCP by gastric gavage at doses of 2.5 g/kg/day, 1.25 g/kg/day and 0.625 g/kg/day for 2 days. (LD50 of CCP from an acute toxicity test was 5 g/Kg, we adopted a half dose for our study). The fourth group is given to normal saline (0.5 ml/mice) as a negative control group. The last group was given to cyclophosphamide(CP) at 40 mg/Kg via abdominal cavity injection as a positive control group.
# Animals were killed 24 hours after administration. Both femurs of the mice were taken for sampling. Femurs were pressed to move out the marrow, with a drop of calf serum added to it, smear the marrow on a plate. After the smeared plate was fixed in the solution of methyl for 10 minutes, it was dyed with the Giemsa's method and observed under the oil lens of a microscope. In the principle of double-blinded study, PCE and MNPCE cells were counted. 1000 PCE and MNPCE cell were counted for each mice, calculated the ratio of micronuclei over the 1000 cells. The ratio of micronuclei represents the dose-effectiveness relation. The data was analyzed with statistical t test.
# [13] = system: rats' extra-corporeal uterine smooth muscle; assay: Contraction of normal rats' extra-corporeal uterine smooth muscle; parameters: species or system Wister rats; conditions: 7 μg/ml
# Protocol: a) Put 5.4g extract of CCP in 100 ml of the Locke's solution and mixed thoroughly. The drug concentration results in 54 mg/ml. Take 1 ml of this solution, put it into a homothermic flume with 9 ml of the Locke's solution. The drug concentration from this mixture contains 5.4 mg/ml. Likewise, put 2.7 g extract of CCP in 100 ml of the Locke's solution and mixed thoroughly. Take 1 ml of this mixture, combine it with 9 ml of Locke's solution and the drug concentration will result in 2.7 mg/ml. Mix up 100 ml of the Locke's solution with a 1.9 g CCP's extract. Take 1 ml of this mixture, combine it with 9 ml of the Locke's solution and the drug concentration will result in 1.9 mg/ml. Mix 200 ml of the Locke's solution with 2.6 of CCP's extract, the concentration will result in 13 mg/ml. Take 1 ml of this mixture, combine it with 9 ml of the Locke's solution which results in a drug concentration of 1.3 mg/ml. Mix 200 ml or 300 ml of the Locke's solution with 1.8 CCP's resulting in a drug concentration of 9 mg/ml and 6 mg/ml respectively. Take 1 ml of this mixture into homothermic flume with 9 ml of the Locke's solution. The result is a drug concentration containing 0.9 mg/ml and 0.6 mg/ml respectively
# 9.0 of NaCL, 0.42 of KCL, 0.24 of CaCL2, 0.2 of NaHCO3 and 1.0 g of glucose. Mixed with distilled water until obtaining 1000 ml. PH is about 7.
# as §1
# Animals' Grouping: randomly divide the Wister female rats' extracorporeal uteruses into a normal saline control group (NSG) and a CCP group (CCPG). […]
# [14] = cyclophosphamide 40 mg/Kg, per 1000 cells
compound,measurement,setting,value
CC[C@H](C)[C@@H]1NC(=O)[C@H](Cc2ccc(O)cc2)NC(=O)[C@@H](N)CSSC[C@@H](C(=O)N2CCC[C@H]2C(=O)N[C@@H](CC(C)C)C(=O)NCC(N)=O)NC(=O)[C@H](CC(N)=O)NC(=O)[C@H](CCC(N)=O)NC1=O [Oxytocin],contraction frequency,[1]; after adm. 1-10 mins,11.7 ± 1.5
same,contraction frequency,[1]; after adm. 10-20 mins,11.6 ± 1.9
same,contraction frequency,[1]; after adm. 20-30 mins,10.9 ± 1.17
same,contraction frequency,[1]; before adm.,7.0 ± 1.3
same,contraction activity,[1]; after adm. 1-10 mins,118.8 ± 77.6%
same,"contraction activity, controlling %",[1]; after adm. 1-10 mins,−108.8%
same,"contraction frequency, controlling %",[1]; after adm. 1-10 mins,−67.1%
same,contraction range,[1]; after adm. 1-10 mins,9.7 ± 5.0 mm
same,"contraction range, controlling %",[1]; after adm. 1-10 mins,−21.3%
same,contraction activity,[1]; after adm. 10-20 mins,129.6 ± 97.3%
same,"contraction activity, controlling %",[1]; after adm. 10-20 mins,−127.8%
same,"contraction frequency, controlling %",[1]; after adm. 10-20 mins,−65.7%
same,contraction range,[1]; after adm. 10-20 mins,10.4 ± 5.7 mm
same,"contraction range, controlling %",[1]; after adm. 10-20 mins,−30.0%
same,contraction activity,[1]; after adm. 20-30 mins,111.2 ± 86.5%
same,"contraction activity, controlling %",[1]; after adm. 20-30 mins,−95.4%
same,"contraction frequency, controlling %",[1]; after adm. 20-30 mins,−55.7%
same,contraction range,[1]; after adm. 20-30 mins,9.7 ± 6.1 mm
same,"contraction range, controlling %",[1]; after adm. 20-30 mins,−21.3%
same,contraction activity,[1]; before adm.,56.9 ± 21.6%
same,contraction range,[1]; before adm.,8.0 ± 2.6 mm
same,"contraction range, controlling %",[1]; column Before adm.,8.8%
same,contraction activity,[1]; column Oxytocin,84.7 ± 22.0%
same,"contraction activity, controlling %",[1]; column Oxytocin,−48.9%
same,"contraction frequency, controlling %",[1]; column Oxytocin,−91.4%
same,contraction range,[1]; column Oxytocin,7.3 ± 3.2 mm
OCCN(CCO)c1nc(N2CCCCC2)c2nc(N(CCO)CCO)nc(N3CCCCC3)c2n1 [Persantine],"Whole Blood Ratio Viscosity, high shear",[2],12.10 ± 1.90
same,"Whole Blood Ratio Viscosity, low shear",[2],16.12 ± 6.92
"N#C[C@H](O[C@@H]1O[C@H](CO[C@@H]2O[C@H](CO)[C@@H](O)[C@H](O)[C@H]2O)[C@@H](O)[C@H](O)[C@H]1O)c1ccccc1 [Amygdalin, Benzeneacetonitrile, α-[(6-O-β-D-glucopyranosyl-β-D-glucopyranosyl)oxy]-, (R)—]",volume in which 1 g resolves,[3]; boiling ethanol,11 mL
same,volume in which 1 g resolves,[3]; ethanol,900 mL
same,volume in which 1 g resolves,[3]; water,12 mL
"COc1ccc(C(C)=O)c(O)c1 [Paeonol, Ethanone, 1-(2-hydroxy-4-methoxyphenyl)-]",validity rate,"[4]; 261 cases with rheumatoid arthritis, lumbago, bellyache, postoperative & cancer pain",92%
same,validity rate,"[4]; inject 50˜100 mg, rheumatism, other pains, eczema, dermatitis",83%
same,controlling consistency,[5],500 µg/mL
same,solubility in water,[6],resolve a little in water
same,controlling consistency,[7],250 µg/mL
same,controlling consistency,[8],200 µg/mL
same,controlling consistency,[9],200 µg/mL
same,controlling consistency,[10],500 µg/mL
same,duration of reduced pressure,[11],10 to 12 min
same,reduce pressure,[11],41-61%
"O=P1(N(CCCl)CCCl)NCCCO1 (stereo not shown) [Positive control, cyclophosphamide]",number of Micronuclei,"[12]; cyclophosphamide 40 mg/Kg abdominal cavity injection, 6000 PCE cells",381
same,"incidence of micronuclei, Range",[12]; [14],43-98
same,"incidence of micronuclei, X ± SD",[12]; [14],63.5000 ± 20.6373
same,incidence of micronucleus,[12]; cyclophosphamide injection 40 mg/Kg,obviously higher than the negative control
Pregnendione [Progestin],contraction frequency of rats' uterine smooth muscle,[13],can control contraction frequency
same,contraction frequency,[13]; after adm. 0-20 mins,6.3 ± 2.5 time/10 mins
same,contraction activity,[13]; after adm. 1-10 mins,47.2 ± 22.9%
same,"contraction activity, controlling %",[13]; after adm. 1-10 mins,31.9%
same,contraction frequency,[13]; after adm. 1-10 mins,6.1 ± 2.0 time/10 mins
same,"contraction frequency, controlling percentage",[13]; after adm. 1-10 mins,23.8%
same,contraction range,[13]; after adm. 1-10 mins,7.4 ± 2.3 mm
same,"contraction range, controlling percent",[13]; after adm. 1-10 mins,14.0%
same,contraction activity,[13]; after adm. 10-20 mins,46.3 ± 27.9%
same,"contraction activity, controlling %",[13]; after adm. 10-20 mins,33.2%
same,"contraction frequency, controlling percentage",[13]; after adm. 10-20 mins,21.3%
same,contraction range,[13]; after adm. 10-20 mins,7.0 ± 2.6 mm
same,"contraction range, controlling percent",[13]; after adm. 10-20 mins,18.6%
same,contraction activity,[13]; after adm. 20-30 mins,35.2 ± 22.5%
same,"contraction activity, controlling %",[13]; after adm. 20-30 mins,49.2%
same,contraction frequency,[13]; after adm. 20-30 mins,5.0 ± 2.4 time/10 mins
same,"contraction frequency, controlling percentage",[13]; after adm. 20-30 mins,37.5%
same,contraction range,[13]; after adm. 20-30 mins,7.0 ± 2.8 mm
same,"contraction range, controlling percent",[13]; after adm. 20-30 mins,18.6%
same,contraction activity,[13]; before adm.,69.3 ± 20.9%
same,contraction frequency,[13]; before adm.,8.0 ± 0.8 time/10 mins
same,contraction range,[13]; before adm.,8.6 ± 2.2 mm
